These results are taken from patent US20240041042A1, “1-(PYRIDYL)-5-AZINYLPYRAZOLE DERIVATIVES, AND THEIR USE FOR CONTROL OF UNDESIRED PLANT GROWTH” (Bayer Aktiengesellschaft, priority 2020, published 2024).

Common to all, as to type: in vivo
Data set [1] concerns Alopecurus myosuroides (ALOMY). The data set can be described thus: Pre-emergence herbicidal action against ALOMY. To be noted: 320 g/ha; scored visually after about 3 weeks; 100% = plants have died. In outline: (§1)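 Dosages of 320 g/ha or less; pre-emergence; WP or EC in aqueous spray, 0.5% additive, 600 l/ha; greenhouse; visual % effect after ~3 wk relative to control pots.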

Data set [2] has as its system Amaranthus retroflexus (AMARE). As to the kind of experiment: Pre-emergence herbicidal action against AMARE. As to conditions: 320 g/ha, visual scoring after about 3 weeks vs untreated controls. The essentials: as §1
Data set [3] concerns Digitaria sanguinalis (DIGSA). The data set can be described thus: Pre-emergence herbicidal action against DIGSA. To be noted: dosage 320 g/ha. The essentials: as §1
Data set [4] has as its system Lolium rigidum (LOLRI). The data set can be described thus: Pre-emergence herbicidal action against LOLRI. To be noted: dosage 320 g/ha. The essentials: as §1
The test system of data set [5] is Viola tricolor (VIOTR). As to the kind of experiment: Pre-emergence herbicidal action against VIOTR. In outline: as §1
A further data set deals with Glycine max (GLXMA). To be noted: pre-emergence, 80 g/ha, crop plant compatibility, in comparison to untreated controls. The essentials: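 Crop injury rated visually in percent against untreated plants roughly 3 weeks after treatment (0% no effect, 100% plants dead). Compounds, as WP or EC with 0.5% additive in 600 l/ha water, were applied to the covering soil right after sowing; greenhouse growth. Suffixes a, b, c denote different dosages.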

The test system of data set [6] is Alopecurus myosuroides (ALOMY). As to the kind of experiment: Post-emergence herbicidal action against ALOMY. To be noted: 320 g/ha, visual rating about 3 weeks after treatment vs untreated controls (100% = plants have died, 0% = like control plants). The essentials: (§2)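 Post-emergence greenhouse spray, one-leaf stage, 600 l/ha water plus 0.5% additive; WP or EC formulations; application rates 320 g/ha or lower. Visual % damage vs untreated controls at ~3 weeks.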

In data set [7] the test system is Lolium rigidum (LOLRI). As to the kind of experiment: Post-emergence herbicidal action against LOLRI. To be noted: dosage 320 g/ha. In outline: as §2
Data set [8] concerns Polygonum convolvulus (POLCO). The data set can be described thus: Post-emergence herbicidal action against POLCO. As to conditions: dosage 320 g/ha. The essentials: as §2
The test system of data set [9] is Viola tricolor (VIOTR). The data set can be described thus: Post-emergence herbicidal action against VIOTR. In outline:
as §2

In the next data set the test system is Oryza sativa (ORYSA). As to conditions: crop plant compatibility, effect in comparison to untreated controls. In outline: (§3)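 Effects were read visually as % versus untreated controls (0% = no effect, 100% = death) about 3 weeks post-treatment. Application was a post-emergence spray at the one-leaf stage of WP/EC formulations with 0.5% additive at 600 l/ha. Different dosages are denoted a, b and c.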

Another data set deals with Zea mays (ZEAMX). To be noted: crop plant compatibility, effect vs untreated controls. The essentials: as §3
The subject of data set [10] is Matricaria inodora (MATIN). As to the kind of experiment: Pre-emergence herbicidal action against MATIN. As to conditions: dosage 320 g/ha. In outline: as §1
Data set [11] deals with Polygonum convolvulus (POLCO). As to the kind of experiment: Pre-emergence herbicidal action against POLCO. As to conditions: dosage 320 g/ha. In outline: as §1
The test system of another data set is Setaria viridis (SETVI). As to the kind of experiment: Pre-emergence herbicidal action against SETVI. To be noted: dosage 320 g/ha. In outline:
as §1

Data set [12] relates to Digitaria sanguinalis (DIGSA). As to the kind of experiment: Post-emergence herbicidal action against DIGSA. As to conditions: 320 g/ha, visual rating about 3 weeks after treatment. In outline:
as §2

For data set [13], the system named is Echinochloa crus-galli (ECHCG). The data set can be described thus: Post-emergence herbicidal action against ECHCG. As to conditions: dosage 320 g/ha. In outline:
as §2

Data set [14] concerns Amaranthus retroflexus (AMARE). The data set can be described thus: Post-emergence herbicidal action against AMARE. To be noted: 320 g/ha, visual rating about 3 weeks after treatment. In outline: as §2
Data set [15] deals with Pharbitis purpurea (PHBPU). The data set can be described thus: Post-emergence herbicidal action against PHBPU. To be noted: dosage 320 g/ha. In outline:
as §2

Read-outs that look alike come from different tables or passages of the source.

Regarding `C[C@@H](Oc1nn(-c2ccccn2)c(-c2ccc(Cl)nc2)c1Br)C(=O)O` [Example I-240], the “Pre-emergence action against ALOMY” value in data set [1] was 90%. Besides, the “Pre-emergence action against AMARE in %” value in data set [2] came out at 90%. Besides, in [3], the “Pre-emergence action against DIGSA in %” value stood at 90%. Moreover, in the data set with Lolium rigidum (LOLRI) [4], the “Pre-emergence action against LOLRI in %” value is 90%. Besides, the “Pre-emergence action against VIOTR in %” value with Viola tricolor (VIOTR) [5] (320 g/ha, Viola tricolor) is recorded as 90%. The “Pre-emergence action against GLXMA in %” value with Glycine max (GLXMA) is listed as 20%. Also, the “Post-emergence action against ALOMY in %” value in data set [6] is listed as 80%. Besides, the “Post-emergence action against LOLRI in %” value in the data set on Lolium rigidum (LOLRI) [7] came to 80%. Also, in [8], the “Post-emergence action against POLCO in %” value is listed as 80%. For the same compound, in the data set on Viola tricolor (VIOTR) [9] (320 g/ha), the “Post-emergence action against VIOTR in %” value is given as 80%. Also, the “Post-emergence action against ORYSA in %” value in the data set with Oryza sativa (ORYSA) (80 g/ha) and in the data set with Oryza sativa (ORYSA) (320 g/ha) was 0% each time. In addition, the “Post-emergence action against ZEAMX in %” value in the data set on Zea mays (ZEAMX) (80 g/ha) was determined as 10%; with Zea mays (ZEAMX) (320 g/ha) it was 20%.
Take `CC(C)C(Oc1nn(-c2ccccn2)c(-c2ccc(F)nc2)c1Br)C(=O)O` (stereo not drawn) [Example I-347]: the “Pre-emergence action against ALOMY” value in [1] was 80%. Besides, the “Pre-emergence action against DIGSA in %” value in data set [3] stood at 90%. Besides, in data set [10], the “Pre-emergence action against MATIN in %” value turned out to be 80%. For the same compound, the “Pre-emergence action against POLCO in %” value in data set [11] was 80%. For the same compound, the “Pre-emergence action against SETVI in %” value with Setaria viridis (SETVI) came to 80%. The “Pre-emergence action against VIOTR in %” value in the data set with Viola tricolor (VIOTR) [5] (320 g/ha, Viola tricolor) was determined as 100%; in the data set with Viola tricolor (VIOTR) [5] (dosage 80 g/ha), 90%. Besides, the “Pre-emergence action against GLXMA in %” value in the data set with Glycine max (GLXMA) is given as 10%. Moreover, the “Post-emergence action against ALOMY in %” value in [6] turned out to be 80%. The “Post-emergence action against DIGSA in %” value in [12] amounted to 80%. For the same compound, the “Post-emergence action against ECHCG in %” value in data set [13] is 80%. Further, the “Post-emergence action against POLCO in %” value in data set [8] is given as 80%. The “Post-emergence action against VIOTR in %” value with Viola tricolor (VIOTR) [9] (80 g/ha) and with Viola tricolor (VIOTR) [9] (320 g/ha) was 80% throughout. Further, the “Post-emergence action against ORYSA in %” value in the data set on Oryza sativa (ORYSA) (80 g/ha) and with Oryza sativa (ORYSA) (320 g/ha) was 0% in each case. Also, the “Post-emergence action against ZEAMX in %” value in the data set with Zea mays (ZEAMX) (80 g/ha) was 20%.
`C[C@@H](Oc1nn(-c2ccccn2)c(-c2ccc(Cl)nc2)c1Cl)C(=O)O` [Example I-238]: in data set [1], the “Pre-emergence action against ALOMY” value is on record as 90%. In addition, in [2], the “Pre-emergence action against AMARE in %” value was 80%. Also, the “Pre-emergence action against DIGSA in %” value in data set [3] was 90%. Besides, the “Pre-emergence action against LOLRI in %” value in the data set on Lolium rigidum (LOLRI) [4] is given as 90%. Also, the “Pre-emergence action against POLCO in %” value in data set [11] came out at 80%. The “Pre-emergence action against VIOTR in %” value with Viola tricolor (VIOTR) [5] (320 g/ha, Viola tricolor) turned out to be 90%. Moreover, the “Pre-emergence action against GLXMA in %” value in the data set with Glycine max (GLXMA) worked out at 20%. For the same compound, the “Post-emergence action against ALOMY in %” value in data set [6] is on record as 80%. The “Post-emergence action against AMARE in %” value in data set [14] was determined as 80%. Also, the “Post-emergence action against ECHCG in %” value in data set [13] was found to be 80%. Further, the “Post-emergence action against LOLRI in %” value in the data set on Lolium rigidum (LOLRI) [7] was determined as 80%. In addition, the “Post-emergence action against PHBPU in %” value in data set [15] came out at 80%. In [8], the “Post-emergence action against POLCO in %” value is given as 80%. The “Post-emergence action against VIOTR in %” value in the data set with Viola tricolor (VIOTR) [9] (320 g/ha) was 80%. For the same compound, the “Post-emergence action against ORYSA in %” value in the data set on Oryza sativa (ORYSA) (80 g/ha) is reported as 0%; with Oryza sativa (ORYSA) (320 g/ha), 10%. Moreover, the “Post-emergence action against ZEAMX in %” value with Zea mays (ZEAMX) (80 g/ha) came to 10%.
